From paper PMC2810227, “3-O-Methylfunicone, a Selective Inhibitor of Mammalian Y-Family DNA Polymerases from an Australian Sea Salt Fungal Strain” (Marine Drugs, 2009)

Columns and labels:
[1] = target: T1, human topoisomerase II (Homo sapiens, UniProt P11388); assay: DNA topoisomerase II assay; assay type: biochemical; conditions: 100 μM
T1 construct: Purified human placenta DNA topoisomerases I and II were purchased from TopoGen, Inc; purchased TopoGen, Inc. (Columbus, OH, USA); host or cells: human placenta (tissue-purified)
Excerpt: (§1) Pol α was purified from calf thymus by immuno-affinity column chromatography, as described by Tamai et al.. Recombinant rat pol β was purified from E. coli JMpβ5, as described by Date et al.. The human pol γ catalytic gene was cloned into pFastBac. Histidine-tagged enzyme was expressed using the BAC-TO-BAC HT Baculovirus Expression System according to the supplier’s manual (Life Technologies, MD, USA) and purified using ProBoundresin (Invitrogen Japan, Tokyo, Japan). Human pols δ and ɛ were purified by nuclear fractionation of human peripheral blood cancer cells (Molt-4) using the second subunit of pols δ and ɛ-conjugated affinity column chromatography, respectively. A truncated form of human pol η (residues 1–511) tagged with His6 at its C-terminal was expressed in E. coli cells and purified as described by Kusumoto et al.. […]
(§2) The activities of calf primase of pol α, human telomerase, T7 RNA polymerase, mouse IMP dehydrogenase, human DNA topoisomerases I and II, T4 polynucleotide kinase and bovine DNase I were measured in standard assays according to the manufacturer’s specifications, as described by Tamiya-Koizumi et al., Oda et al., Nakayama et al., Mizushina et al., Ishimaru et al., Soltis et al. and Lu et al., respectively.

[2] = target: T2, human pol γ (Homo sapiens, UniProt P54098); assay: DNA polymerase assay, pol γ; assay type: biochemical; conditions: 100 μM
T2 construct: His; made in house
Excerpt: (§3) Pol α was purified from calf thymus by immuno-affinity column chromatography, as described by Tamai et al.. Recombinant rat pol β was purified from E. coli JMpβ5, as described by Date et al.. The human pol γ catalytic gene was cloned into pFastBac. Histidine-tagged enzyme was expressed using the BAC-TO-BAC HT Baculovirus Expression System according to the supplier’s manual (Life Technologies, MD, USA) and purified using ProBoundresin (Invitrogen Japan, Tokyo, Japan). Human pols δ and ɛ were purified by nuclear fractionation of human peripheral blood cancer cells (Molt-4) using the second subunit of pols δ and ɛ-conjugated affinity column chromatography, respectively. A truncated form of human pol η (residues 1–511) tagged with His6 at its C-terminal was expressed in E. coli cells and purified as described by Kusumoto et al.. A recombinant mouse pol ι tagged with His6 at its C-terminal was expressed and purified by Ni-NTA column chromatography as described elsewhere (Masutani et al., in preparation). […]
(§4) The compounds were dissolved in distilled dimethyl sulfoxide (DMSO) at various concentrations and sonicated for 30 sec. […] Activity without the inhibitor was considered 100%, and the remaining activity at each concentration of the inhibitor was determined relative to this value. […]

[3] = target: T3, human topoisomerase I (Homo sapiens, UniProt P11387); assay: DNA topoisomerase I assay; assay type: biochemical; conditions: 100 μM
T3 construct: Purified human placenta DNA topoisomerases I and II were purchased from TopoGen, Inc; purchased TopoGen, Inc. (Columbus, OH, USA); host or cells: human placenta (tissue-purified)
Excerpt: as §1, §2

[4] = target: T4, fruit fly pol δ (Drosophila melanogaster, UniProt P54358); assay: DNA polymerase assay, insect pol δ; assay type: biochemical; conditions: 100 μM
T4 construct: purified from early embryos of Drosophila melanogaster; from tissue; host or cells: early embryos of Drosophila melanogaster

[5] = test system: HDF (human dermal fibroblast); assay: Proliferation and growth of normal cells, HDF; assay type: cell-based; conditions: data not shown
[6] = target: T5, human immunodeficiency virus type-1 (HIV-1) reverse transcriptase (Human immunodeficiency virus type 1 group M subtype B, UniProt P03366); assay: HIV-1 reverse transcriptase assay; assay type: biochemical; conditions: 100 μM
T5 construct: HIV-1 reverse transcriptase (recombinant); purchased Worthington Biochemical Corp. (Freehold, NJ, USA)
Excerpt: as §3, §4

[7] = target: T6, fruit fly pol ɛ (Drosophila melanogaster, UniProt Q9VCN1); assay: DNA polymerase assay, insect pol ɛ; assay type: biochemical; conditions: 100 μM
T6 construct: purified from early embryos of Drosophila melanogaster; from tissue; host or cells: early embryos of Drosophila melanogaster
Excerpt: as §3, §4

[8] = target: T7, human pol λ (Homo sapiens, UniProt Q9UGP5); assay: DNA polymerase assay, pol λ; assay type: biochemical; conditions: 100 μM
T7 construct: His; made in house
Excerpt: as §3, §4

[9] = target: T8, rice pol λ (Oryza sativa subsp. japonica, UniProt Q67VC8); assay: DNA polymerase assay, plant pol λ; assay type: biochemical, rice (Oryza sativa L. cv. Nipponbare); conditions: 100 μM
T8 construct: His; made in house
Excerpt: as §3, §4

[10] = target: T9, human pol η (Homo sapiens, UniProt Q9Y253); assay: DNA polymerase assay, pol η; assay type: biochemical
T9 construct: A truncated form of human pol η (residues 1–511); His6 (C); made in house; host or cells: E. coli
Excerpt: as §3, §4

T9 sequence (Q9Y253 1-511): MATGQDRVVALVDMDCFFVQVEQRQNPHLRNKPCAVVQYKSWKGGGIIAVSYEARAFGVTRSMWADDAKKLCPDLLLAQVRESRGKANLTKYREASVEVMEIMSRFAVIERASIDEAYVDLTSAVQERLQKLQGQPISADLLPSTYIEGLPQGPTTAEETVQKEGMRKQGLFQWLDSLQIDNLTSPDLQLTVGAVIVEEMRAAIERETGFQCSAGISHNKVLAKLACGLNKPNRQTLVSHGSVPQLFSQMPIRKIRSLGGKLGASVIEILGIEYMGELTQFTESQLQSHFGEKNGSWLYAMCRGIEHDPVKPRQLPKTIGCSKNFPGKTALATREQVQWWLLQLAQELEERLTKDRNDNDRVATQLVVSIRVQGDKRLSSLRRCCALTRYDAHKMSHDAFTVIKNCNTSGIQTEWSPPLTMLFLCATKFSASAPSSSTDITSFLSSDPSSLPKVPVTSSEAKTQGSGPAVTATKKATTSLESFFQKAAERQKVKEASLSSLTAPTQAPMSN
T4 sequence (P54358 whole entry): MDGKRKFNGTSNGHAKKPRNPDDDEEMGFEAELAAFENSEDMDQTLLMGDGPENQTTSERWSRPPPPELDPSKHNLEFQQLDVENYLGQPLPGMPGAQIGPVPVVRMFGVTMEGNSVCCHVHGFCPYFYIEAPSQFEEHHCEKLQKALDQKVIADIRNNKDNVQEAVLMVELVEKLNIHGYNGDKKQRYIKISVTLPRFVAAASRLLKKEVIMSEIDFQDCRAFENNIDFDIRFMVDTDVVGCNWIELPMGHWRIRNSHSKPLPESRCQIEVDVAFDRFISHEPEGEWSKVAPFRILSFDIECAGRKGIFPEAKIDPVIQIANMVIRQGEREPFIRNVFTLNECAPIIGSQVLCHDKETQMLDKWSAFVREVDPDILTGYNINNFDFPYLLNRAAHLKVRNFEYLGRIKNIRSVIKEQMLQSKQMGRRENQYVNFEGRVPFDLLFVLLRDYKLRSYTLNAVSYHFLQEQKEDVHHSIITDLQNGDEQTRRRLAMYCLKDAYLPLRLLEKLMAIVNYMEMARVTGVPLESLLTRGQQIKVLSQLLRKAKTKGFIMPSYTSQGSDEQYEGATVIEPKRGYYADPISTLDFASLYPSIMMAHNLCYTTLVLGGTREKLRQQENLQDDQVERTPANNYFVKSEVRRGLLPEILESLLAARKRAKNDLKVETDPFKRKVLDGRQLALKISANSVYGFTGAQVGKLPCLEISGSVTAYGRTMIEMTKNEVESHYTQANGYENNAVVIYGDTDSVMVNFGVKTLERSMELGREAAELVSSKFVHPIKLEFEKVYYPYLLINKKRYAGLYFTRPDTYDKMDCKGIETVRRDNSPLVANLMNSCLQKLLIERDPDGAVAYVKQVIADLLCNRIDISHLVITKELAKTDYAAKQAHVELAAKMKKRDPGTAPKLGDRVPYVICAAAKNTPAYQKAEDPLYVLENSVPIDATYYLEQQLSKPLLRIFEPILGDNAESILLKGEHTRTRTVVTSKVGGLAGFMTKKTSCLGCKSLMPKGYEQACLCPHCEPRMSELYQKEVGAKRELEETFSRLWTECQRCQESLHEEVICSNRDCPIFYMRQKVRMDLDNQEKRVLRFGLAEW
T1 sequence (P11388 whole entry): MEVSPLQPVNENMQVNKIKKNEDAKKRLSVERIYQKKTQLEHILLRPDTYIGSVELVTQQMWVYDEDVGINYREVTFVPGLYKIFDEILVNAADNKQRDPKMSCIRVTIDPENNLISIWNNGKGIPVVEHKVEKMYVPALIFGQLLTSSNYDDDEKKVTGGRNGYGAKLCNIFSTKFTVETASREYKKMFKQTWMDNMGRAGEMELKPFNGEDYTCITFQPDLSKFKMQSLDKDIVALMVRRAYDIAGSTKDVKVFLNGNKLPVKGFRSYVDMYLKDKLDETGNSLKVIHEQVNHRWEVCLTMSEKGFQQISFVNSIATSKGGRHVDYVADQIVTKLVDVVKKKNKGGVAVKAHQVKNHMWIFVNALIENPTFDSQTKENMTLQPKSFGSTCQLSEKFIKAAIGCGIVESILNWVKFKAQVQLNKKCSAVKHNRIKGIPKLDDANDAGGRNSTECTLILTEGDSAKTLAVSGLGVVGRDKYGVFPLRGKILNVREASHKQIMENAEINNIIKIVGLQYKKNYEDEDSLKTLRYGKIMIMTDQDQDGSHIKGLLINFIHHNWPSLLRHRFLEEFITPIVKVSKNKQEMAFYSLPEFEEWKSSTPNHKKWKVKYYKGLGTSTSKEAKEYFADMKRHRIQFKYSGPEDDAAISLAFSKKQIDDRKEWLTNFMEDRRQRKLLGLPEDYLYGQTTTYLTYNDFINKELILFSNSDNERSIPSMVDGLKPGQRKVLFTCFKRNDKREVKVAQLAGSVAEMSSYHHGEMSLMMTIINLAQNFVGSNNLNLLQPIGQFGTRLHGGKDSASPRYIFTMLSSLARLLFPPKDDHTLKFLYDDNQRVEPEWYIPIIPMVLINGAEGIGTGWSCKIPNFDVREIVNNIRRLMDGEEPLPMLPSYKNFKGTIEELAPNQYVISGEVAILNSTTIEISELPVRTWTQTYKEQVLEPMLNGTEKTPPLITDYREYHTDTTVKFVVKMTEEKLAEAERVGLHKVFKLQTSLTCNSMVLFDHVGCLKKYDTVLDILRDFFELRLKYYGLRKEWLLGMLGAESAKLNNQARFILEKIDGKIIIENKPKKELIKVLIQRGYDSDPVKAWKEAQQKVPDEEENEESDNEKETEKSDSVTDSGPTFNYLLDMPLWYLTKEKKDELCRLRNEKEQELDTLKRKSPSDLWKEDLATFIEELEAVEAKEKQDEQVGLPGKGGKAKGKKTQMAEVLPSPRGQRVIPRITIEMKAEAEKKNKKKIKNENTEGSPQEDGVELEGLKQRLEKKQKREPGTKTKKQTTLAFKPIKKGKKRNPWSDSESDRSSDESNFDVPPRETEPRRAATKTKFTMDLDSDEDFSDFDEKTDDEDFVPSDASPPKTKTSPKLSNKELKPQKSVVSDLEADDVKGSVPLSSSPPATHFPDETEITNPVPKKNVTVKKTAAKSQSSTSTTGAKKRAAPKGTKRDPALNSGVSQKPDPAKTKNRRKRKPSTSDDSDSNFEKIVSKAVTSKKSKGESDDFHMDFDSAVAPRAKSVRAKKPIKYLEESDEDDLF
T3 sequence (P11387 whole entry): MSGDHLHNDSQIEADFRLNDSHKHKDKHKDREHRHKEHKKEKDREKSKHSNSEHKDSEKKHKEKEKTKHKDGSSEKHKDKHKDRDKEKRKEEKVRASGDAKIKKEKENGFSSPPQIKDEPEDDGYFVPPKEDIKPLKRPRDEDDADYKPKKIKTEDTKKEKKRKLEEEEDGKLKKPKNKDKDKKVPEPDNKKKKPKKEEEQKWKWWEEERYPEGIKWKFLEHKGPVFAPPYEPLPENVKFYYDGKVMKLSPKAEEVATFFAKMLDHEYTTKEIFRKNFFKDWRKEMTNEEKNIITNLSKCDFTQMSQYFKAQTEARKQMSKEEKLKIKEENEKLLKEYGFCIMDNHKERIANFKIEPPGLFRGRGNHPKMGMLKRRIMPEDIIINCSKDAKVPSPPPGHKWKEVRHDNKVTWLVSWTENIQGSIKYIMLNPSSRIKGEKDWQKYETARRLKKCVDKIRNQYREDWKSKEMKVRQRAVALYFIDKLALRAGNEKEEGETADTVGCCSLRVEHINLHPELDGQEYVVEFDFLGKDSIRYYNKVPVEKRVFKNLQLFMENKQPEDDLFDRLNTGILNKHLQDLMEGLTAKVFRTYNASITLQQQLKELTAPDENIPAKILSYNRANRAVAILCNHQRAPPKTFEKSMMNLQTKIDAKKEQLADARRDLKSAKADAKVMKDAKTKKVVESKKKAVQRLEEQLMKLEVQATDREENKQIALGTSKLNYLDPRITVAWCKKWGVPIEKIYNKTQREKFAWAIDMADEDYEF
T7 sequence (Q9UGP5 whole entry): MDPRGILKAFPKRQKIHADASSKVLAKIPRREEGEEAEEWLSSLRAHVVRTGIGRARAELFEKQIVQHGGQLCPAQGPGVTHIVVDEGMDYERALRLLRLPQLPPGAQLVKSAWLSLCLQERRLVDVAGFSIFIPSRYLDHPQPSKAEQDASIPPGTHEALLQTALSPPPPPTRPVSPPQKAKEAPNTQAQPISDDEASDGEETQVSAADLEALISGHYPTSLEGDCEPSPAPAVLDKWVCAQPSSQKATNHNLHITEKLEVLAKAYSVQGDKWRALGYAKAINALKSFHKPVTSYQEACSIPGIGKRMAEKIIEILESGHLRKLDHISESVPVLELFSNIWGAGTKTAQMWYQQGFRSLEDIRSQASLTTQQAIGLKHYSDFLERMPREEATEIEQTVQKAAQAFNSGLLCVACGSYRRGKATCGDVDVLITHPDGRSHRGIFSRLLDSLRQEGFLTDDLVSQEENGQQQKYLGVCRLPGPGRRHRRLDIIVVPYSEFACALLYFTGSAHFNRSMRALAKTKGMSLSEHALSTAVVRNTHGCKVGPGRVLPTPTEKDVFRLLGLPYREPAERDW
T8 sequence (Q67VC8 whole entry): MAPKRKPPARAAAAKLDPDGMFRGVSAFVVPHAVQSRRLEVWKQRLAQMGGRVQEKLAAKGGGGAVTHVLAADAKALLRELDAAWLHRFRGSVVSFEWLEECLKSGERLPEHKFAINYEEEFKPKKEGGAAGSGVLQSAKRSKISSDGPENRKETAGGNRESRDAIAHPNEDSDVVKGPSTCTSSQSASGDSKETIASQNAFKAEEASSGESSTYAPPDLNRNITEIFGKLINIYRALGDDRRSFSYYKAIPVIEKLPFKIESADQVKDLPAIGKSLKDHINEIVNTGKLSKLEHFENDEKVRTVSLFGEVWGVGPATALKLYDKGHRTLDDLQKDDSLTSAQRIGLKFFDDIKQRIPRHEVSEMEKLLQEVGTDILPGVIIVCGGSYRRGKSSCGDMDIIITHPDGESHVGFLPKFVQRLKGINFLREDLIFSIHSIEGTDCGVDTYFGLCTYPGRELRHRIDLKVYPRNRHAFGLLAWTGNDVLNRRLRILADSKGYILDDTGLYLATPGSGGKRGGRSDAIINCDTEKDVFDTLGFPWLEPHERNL

C/C=C/c1occ(C(=O)c2c(OC)cc(OC)cc2C(=O)OC)c(=O)c1OC [compound 1, 3-O-methylfunicone]
effect on human topoisomerase II activity [1]: did not influence | effect on pol γ activity [2]: hardly influenced | effect on human topoisomerase I activity [3]: did not influence | effect on fruit fly pol δ activity [4]: hardly influenced | effect on cell proliferation and growth [5]: did not influence | effect on HIV-1 reverse transcriptase activity [6]: did not influence | effect on fruit fly pol ɛ activity [7]: hardly influenced | effect on pol λ activity [8]: hardly influenced | effect on rice pol λ activity [9]: no effect | effect on pol η activity ([10]; 100 μM): selectively inhibit | IC50 ([10]; poly(dA)/oligo(dT)18 and dTTP, 0.05 units enzyme, read-out: 50% inhibition of pol η (IC50)): 50.1 µM
